The text below walks through data of patent publication US20240228481A1, “NOVEL SULFONAMIDE SERIES OF QR2 INHIBITORS TO TACKLE OXIDATIVE STRESS AND COGNITIVE DECLINE” (CARMEL HAIFA UNIVERSITY ECONOMIC CORPORATION LTD., priority 2021, published 2024).

What all share (type): biochemical
Assay [1] deals with T1, QR1 (NQO1) (Homo sapiens, UniProt P15559).
T1 construct: purchased Sigma-Aldrich
Put plainly: Selectivity assay with QR1 in place of QR2, absorbance readout. The protocol:
(§1) The enzymatic activity of QR2 (10 nM) was measured using menadione (both Sigma-Aldrich) as substrate and dihydrobenzylnicotamide (BNAH; Tocris) as co-substrate (Boutin et al., 2005). The reaction was performed in 50 mM Tris HCl, 150 mM NaCl 0.01% Tween-20 pH=8.5 (Sigma-Aldrich) at room temperature. Briefly, 3 μL of menadione alone (200 μM) or a mixture of menadione and QR2 (200 μM of menadione and 10 nM of QR2) were dispensed in 1536-well black Nunc plates (Thermo-Fisher) using a Multidrop™ Combi Reagent Dispenser (Thermo-Fisher) and pre-incubated with compounds for 10 min. BNAH (200 μM) was then added (3 μL) to the reaction using a BioNex Solutions BNX 1536 plate washer and the plates were incubated for another 10 min. […] The initial HTS was done with approximately 200,000 compounds at a single concentration of 5 μM. The chemical libraries used were Selleck Chemicals Bioactives, the Drug-like set from Enamine, HitFinder collection from Maybridge, Spectrum Collection from Microsource, Lopac from Sigma-Aldrich and the diversity sets from ChemDiv and ChemBridge. Initial “hit” compounds were defined as causing >30% reduction of enzyme activity. Compounds suspected to be fluorescent were re-assayed in an absorbance assay at 350 nm using the same reaction but in a higher volume (100 μL), in a transparent plate (Greiner Bio-One). “Hit” compounds resulting from both the fluorescence and absorbance assay were tested in a dose-response, and median inhibition concentration (IC50) values were determined. In parallel, the same dose response was used in a selectivity assay where QR2 enzyme was replaced by QR1 (also known as—NQO1, 10 nM; Sigma-Aldrich).
(§2) In order to establish a varied, flexible and chemically amenable starting point from which to develop such inhibitors, the inventors ran a standardized QR2 assay (see methods) against ˜200,000 compounds, from a varied assortment of chemical libraries. […] Compounds that replicated the initial hit result were then assayed similarly, against NQO1, to evaluate compound specificity (FIG. 1B). From the HTS, a series of compounds containing a sulfonamide central linker, with an amine on one side and a heterocycle on the other, were identified and selected for SAR development (FIG. 1C).

In assay [2] the target is T1, QR1 (NQO1). Put plainly: Selectivity assay with QR1 in place of QR2, fluorescence readout. As for the experimental part:
as §1, §2

Assay [3] addresses T2, QR2 (Homo sapiens, UniProt P16083).
T2 sequence (P16083 1-231): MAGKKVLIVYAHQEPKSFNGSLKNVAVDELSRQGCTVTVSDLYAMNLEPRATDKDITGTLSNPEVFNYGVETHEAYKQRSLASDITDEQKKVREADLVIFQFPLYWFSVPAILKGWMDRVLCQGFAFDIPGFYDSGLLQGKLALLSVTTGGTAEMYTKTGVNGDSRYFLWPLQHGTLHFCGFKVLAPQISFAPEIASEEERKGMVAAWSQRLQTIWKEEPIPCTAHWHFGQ
The assay can be described thus: QR2 enzymatic activity assay (menadione/BNAH), absorbance readout at 350 nm. Set-up: purchased Sigma-Aldrich. The protocol:
(§3) The enzymatic activity of QR2 (10 nM) was measured using menadione (both Sigma-Aldrich) as substrate and dihydrobenzylnicotamide (BNAH; Tocris) as co-substrate (Boutin et al., 2005). The reaction was performed in 50 mM Tris HCl, 150 mM NaCl 0.01% Tween-20 pH=8.5 (Sigma-Aldrich) at room temperature. Briefly, 3 μL of menadione alone (200 μM) or a mixture of menadione and QR2 (200 μM of menadione and 10 nM of QR2) were dispensed in 1536-well black Nunc plates (Thermo-Fisher) using a Multidrop™ Combi Reagent Dispenser (Thermo-Fisher) and pre-incubated with compounds for 10 min. BNAH (200 μM) was then added (3 μL) to the reaction using a BioNex Solutions BNX 1536 plate washer and the plates were incubated for another 10 min. […] The initial HTS was done with approximately 200,000 compounds at a single concentration of 5 μM. The chemical libraries used were Selleck Chemicals Bioactives, the Drug-like set from Enamine, HitFinder collection from Maybridge, Spectrum Collection from Microsource, Lopac from Sigma-Aldrich and the diversity sets from ChemDiv and ChemBridge. Initial “hit” compounds were defined as causing >30% reduction of enzyme activity. […] “Hit” compounds resulting from both the fluorescence and absorbance assay were tested in a dose-response, and median inhibition concentration (IC50) values were determined. In parallel, the same dose response was used in a selectivity assay where QR2 enzyme was replaced by QR1 (also known as—NQO1, 10 nM; Sigma-Aldrich).
(§4) In order to establish a varied, flexible and chemically amenable starting point from which to develop such inhibitors, the inventors ran a standardized QR2 assay (see methods) against ˜200,000 compounds, from a varied assortment of chemical libraries.

Assay [4] deals with T2, QR2. Put plainly: QR2 enzymatic activity assay (menadione/BNAH), fluorescence readout. Set-up: purchased Sigma-Aldrich. As for the experimental part:
as §3, §4

Bounds are passed on as bounds.

For orientation: IC50 means the concentration that gives 50% inhibition.

T1 sequence (P15559 whole entry): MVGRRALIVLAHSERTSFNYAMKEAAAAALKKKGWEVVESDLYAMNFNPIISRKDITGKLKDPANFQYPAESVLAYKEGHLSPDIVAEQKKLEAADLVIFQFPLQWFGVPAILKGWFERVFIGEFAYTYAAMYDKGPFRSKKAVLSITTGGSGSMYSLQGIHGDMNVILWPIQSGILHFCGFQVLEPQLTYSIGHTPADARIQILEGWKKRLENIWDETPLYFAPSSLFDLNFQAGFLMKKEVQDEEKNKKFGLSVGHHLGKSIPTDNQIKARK

With `COc1ccc(OC)c(S(=O)(=O)Nc2cccc(-c3cn4c(C)csc4n3)c2)c1` [PCM-0121306], the IC50 in assay [1] was over 9.99 µM; in assay [2] it was 8.77 µM; in assay [3] it was 2.03 µM; in assay [4], 0.83 µM.
Regarding `Cc1ccn2cc(-c3cccc(S(=O)(=O)N4CC(C)CC(C)C4)c3)nc2c1` (centres unmarked) [PCM-0124575], the IC50 was over 9.99 µM in assay [1], over 9.9 µM in assay [2], 1.22 µM in assay [3] and 2.18 µM in assay [4].
Take `Cc1ccc2nc(-c3cccc(S(=O)(=O)N4CCOCC4)c3)cn2c1` [PCM-0124615]: the IC50 in assay [1] was over 9.99 µM; in assay [2], over 9.9 µM; in assay [3], 1.65 µM; in assay [4] it was 3.25 µM.
The matching figures for `Cc1ccc2nc(-c3cccc(S(=O)(=O)N4CC(C)OC(C)C4)c3)cn2c1` (centres unmarked) [PCM-0124655]: over 9.99 µM, over 9.9 µM, 3.03 µM and 4.42 µM.
The corresponding values for `CCCN(CCC)S(=O)(=O)c1cccc(-c2cn3cccc(C)c3n2)c1` [PCM-0124772] are over 9.99 µM, over 9.9 µM, 0.75 µM and 0.83 µM.
In the case of `Cc1ccc(-c2nnc(-c3ccccc3)o2)cc1S(=O)(=O)N(C)C` [PCM-0127506], the IC50 is over 9.99 µM in assay [1], over 9.99 µM in assay [2], 1.62 µM in assay [3] and 2.2 µM in assay [4].
As for `CCN(CC)S(=O)(=O)c1cc(-c2nnc(-c3ccccc3)o2)ccc1C` [PCM-0127546], the IC50 in assay [1] was over 9.99 µM; in assay [2], over 9.9 µM; in assay [3] it was 3.12 µM; in assay [4], 4.82 µM.
For `Cc1ccc(-c2nnc(-c3ccccc3)o2)cc1S(=O)(=O)N1CCC(C)CC1` [PCM-0127586], the 50% inhibitory concentration (IC50) is over 9.99 µM in assay [1], over 9.99 µM in assay [2], 1.2 µM in assay [3] and 5.97 µM in assay [4].
On to `Cc1c(-c2nnc(C3CCC3)o2)c(S(=O)(=O)NCc2ccc(Cl)cc2)c(C)n1C` [PCM-0128885], for which the half-inhibitory concentration (IC50) in assay [1] was over 9.99 µM; in assay [2], over 9.9 µM; in assay [3], over 9.99 µM; in assay [4] it was over 9.9 µM.
For `COc1cc(Cl)c(NS(=O)(=O)c2ccc(-c3cc(C)no3)cc2OC)c(OC)c1` [PCM-0131156], the half-inhibitory concentration (IC50) in assay [1] was over 9.99 µM; in assay [2], over 9.9 µM; in assay [3], 2.73 µM; in assay [4], 3.82 µM.
Take `Cc1cc(-c2ccc(C)c(S(=O)(=O)NCC3CCN(Cc4ccco4)CC3)c2)on1` [PCM-0136246]: the IC50 in assay [1] was over 9.99 µM; in assay [2] it was over 9.9 µM; in assay [3], 2.56 µM; in assay [4], 3.98 µM.
For `O=c1n(Cc2ccc(Cl)cc2)nc2ccc(S(=O)(=O)N3CCCCC3)cn12` [PCM-0140113], the IC50 was over 9.99 µM in assay [1], over 9.9 µM in assay [2], over 9.99 µM in assay [3] and over 9.9 µM in assay [4].
Turning to `COc1ccc(S(=O)(=O)N2CCC(NC(=O)N3CCCC3)CC2)cc1` [PCM-0154188], the half-inhibitory concentration (IC50) is over 9.99 µM in assay [1], over 9.9 µM in assay [2], 3.83 µM in assay [3] and 2.06 µM in assay [4].
As for `Cc1ccn2cc(-c3cccc(S(=O)(=O)N(C)C)c3)nc2c1` [PCM-0213801], the IC50 in assay [1] and in assay [2] was over 9.99 µM in each case.
With `Cc1ccc(-c2cn3cccc(C)c3n2)cc1S(=O)(=O)N1CCN(C)CC1` [YB-540], the IC50 in assay [2] was over 9.99 µM; in assay [4] it was 0.425 µM.
